# Columns and labels:
# C. albicans SC5314-GFP = test: GFP-based adhesion assay; type: cell-based; conditions: Candida albicans, SC5314, read-out: IC50 in the GFP-based adhesion assay
# Procedure: To do this, we measured adhesion of cells plated and washed as before, but here using a C. albicans strain encoding GFP. This allowed us to measure adhesion both in a fluorescence plate reader and by microscopy (FIGS. 1D and 1E). Indeed, these GFP-based assays confirmed that all the compounds effective at 25 μM in the alamarBlue-based assay impair C. albicans adhesion to polystyrene. We conclude that our chemical screen detected multiple compounds that block adhesion to polystyrene, and that these can be assayed via multiple detection methods.
# SC5314-GFP and edt1^−/−-GFP strains were pregrown overnight in SC+0.2% glucose media at 30° C., diluted into fresh SC+0.2% glucose media to a final concentration of 5×10^6 cells/ml (equivalent to 0.5 OD600/ml) and plated onto Immulon 2HB 96-well plates, with each well receiving 0.1 OD of cells. DMSO or compounds resuspended in DMSO were added to the desired final concentration (1% vol/vol of DMSO was maintained). Plates were then incubated for 4 hours at 37° C. […] Fluorescence was measured using a Synergy HT plate reader (BioTek) following addition of […] of PBS/well. For each experiment, untagged SC5314 was analyzed simultaneously to determine background fluorescence that was subtracted from the signal from each well.
# [1] = system: fluconazole-resistant C. albicans strains; test: fluconazole synergy assay; type: cell-based, Candida albicans; conditions: 24 hrs, 37° C.; alamarBlue without wash
# Procedure: FIGS. 10A-10B. […] Candida strains were identified from AIDS patients (3919, an initial progenitor isolate, and the subsequently isolated 4617 and 4639 strains). These were coincubated in the presence of either compounds #4, #Q1, fluconazole alone or a combination of fluconazole with either #4 or #Q1 for 24 hrs in polystyrene plates at 37° C. Viability was assessed using alamarBlue reagent as described (Youngsaye, supra).
# Finally, we tested whether compound #4 would inhibit growth of fluconazole-resistant C. albicans strains in the presence of low levels of fluconazole, because that is the activity described for compound Q1 (Youngsaye supra). To measure cell viability rather than adhesion, we performed alamarBlue-based viability measurements without wash steps, using fluconazole-resistant C. albicans strains obtained from an AIDS patient who had been treated with fluconazole for oral candidaisis (Bachmann, 2002).
# Assays to test for synergies between compound #4 and fluconazole were performed as described (Youngsaye, 2011, supra), except we used a 96-well rather than a 384-well format. […] At the end of 24 hours of incubation, viability was evaluated without washing steps, using alamarBlue as previously described (Youngsaye, 2011, supra).
# [2] = system: C. albicans constitutively filamentous strains; test: hyphal development induced by multiple signals (mutant strains, GlcNAc, hydroxyurea); type: cell-based, Candida albicans; parameters: genotoxic stress-induced filamentation: dose or concentration left out as unconfirmed
# Procedure: FIGS. 30A-30E. Compound #4 inhibits hyphal development induced by multiple signals. FIG. 30A is a schematic diagram of some of the signaling pathways that govern hyphal gene expression. For simplicity, only those genes investigated in this figure are shown. FIG. 30B is a series of photomicrographs showing the effects of compound #4 on constitutively filamentous mutant strains in the cAMP-PKA pathway. Wild-type SC5314, efg1-T206E, ras1-G13V, and ADH1pr-gpa2-Q355L cells were grown in the presence of 1% DMSO or 50 μM compound #4 in Spider medium at 37° C. for 4 hrs, stained with Calcofluor white and photographed using DIC or fluorescent microscopy (20× objective). FIG. 30C is a series of two photomicrographs showing that Compound #4 blocks filamentation induced by GlcNAc or constitutive overexpression of the GlcNac-activated transcription factor Cph1. Images obtained as in FIG. 30B. […] SC5314 cells grown in YPD at 30° C. in the presence of 50 mM hydroxyurea (HU) in combination with either 1% DMSO or […]. Images obtained as in FIG. 30B. FIG. 30E is a series of photomicrographs showing that Compound #4 inhibits the hyperfilamentous growth of a strain that constitutively overexpresses the Gpr1 protein. Colonies were grown on solid Spider media agar overlayed with either 1% DMSO or 50 μM #4 and incubated at 37° C. for 3 days. Colony edges were imaged with a 10× objective.
# To explore the mechanism of compound #4 action, we tested whether compound #4 would alter hyphal induction in mutants that hyperactivate the filamentation process. For example, hyphal induction by Spider media requires the cyclic AMP-protein kinase A (cAMP-PKA) pathway; FIG. 30A. Stimulation of this pathway drives PKA to phosphorylate transcription factor Efg1, activating Efg1 to increase expression of genes required for hyphal morphogenesis.
# For example, the modified sugar N-acetyl-glucosamine (GlcNac) also stimulates hyphal morphogenesis, but does so independently of the cAMP-PKA pathway, instead activating the transcription factor Cph1.
# In addition to nutrient-mediated signals, genotoxic stress promotes hyphal morphogenesis in C. albicans, and the DNA damage signaling kinase Rad53 is required for the hyphal transition.
smiles,measurement,setting,value
Cc1ccc(C(=O)N2CCN(c3ccc([N+](=O)[O-])cc3)CC2)cc1Cl [Compound 4],IC50,C. albicans SC5314-GFP,~3000 nM
same,"viability/growth of fluconazole-resistant strains, alone or with low fluconazole",[1],"did not affect fluconazole-resistant C. albicans viability, whether alone or in the presence of fluconazole"
same,hyphae driven by GlcNac-containing media or overexpression of Cph1,[2],also inhibits formation of hyphae in these cases
same,"morphology of hyperfilamentous cAMP-PKA pathway mutants (ras1-G13V, gpa2-Q355L, efg1-T206E)","[2]; 50 μM, Spider medium 37° C., 4 hrs","retained a planktonic, budded morphology"
same,hyphal morphogenesis of cells overexpressing Gpr1,"[2]; 50 μM, solid Spider media, 37° C., 3 days",blocked hyphal morphogenesis in these cells
same,genotoxic stress-induced filamentation,[2]; YPD 30° C.,form hyphae regardless of the presence of compound #4

# From patent US9648880B2, “Antifungal agents and uses thereof” (University of Massachusetts, priority 2012, dated 2017)
